Test: xn = mol fraction of the nth substance listed

CCC12CC3CC(CC(C3)C1)C2 + CCCCCCCCCCC
viscosity [mPa·s], 100 kPa
Conditions | x1 = 0.1012 | x1 = 0.2042 | x1 = 0.3018 | x1 = 0.4017 | x1 = 0.5014 | x1 = 0.6059 | x1 = 0.7013 | x1 = 0.8052 | x1 = 0.8999
293.15 K | 1.348 | 1.47 | 1.631 | 1.86 | 2.179 | 2.592 | 3.18 | 4.01 | 5.036
298.15 K | 1.203 | 1.334 | 1.489 | 1.692 | 1.93 | 2.302 | 2.77 | 3.47 | 4.339
303.15 K | 1.108 | 1.225 | 1.366 | 1.546 | 1.764 | 2.091 | 2.514 | 3.129 | 3.854
308.15 K | 1.025 | 1.133 | 1.271 | 1.418 | 1.601 | 1.883 | 2.235 | 2.77 | 3.404
313.15 K | 0.953 | 1.049 | 1.173 | 1.311 | 1.472 | 1.728 | 2.039 | 2.509 | 3.078
318.15 K | 0.887 | 0.983 | 1.092 | 1.22 | 1.377 | 1.6 | 1.882 | 2.284 | 2.781
323.15 K | 0.829 | 0.92 | 1.013 | 1.135 | 1.272 | 1.472 | 1.723 | 2.094 | 2.512

CC(C)CC(C)(C)C + CCCCCCCCCCCC
viscosity [mPa·s]
Conditions | 298.15 K | 323.14 K
100 kPa, x1 = 0.5 | 0.8601 | 0.6179
101 kPa, x1 = 0.0923 | 1.236 | –
101 kPa, x1 = 0.1569 | 1.169 | –
101 kPa, x1 = 0.2503 | 1.085 | –
101 kPa, x1 = 0.3747 | 0.9632 | –
101 kPa, x1 = 0.4786 | 0.8653 | –
101 kPa, x1 = 0.5889 | 0.7696 | –
101 kPa, x1 = 0.6762 | 0.7013 | –
101 kPa, x1 = 0.7597 | 0.6346 | –
101 kPa, x1 = 0.8459 | 0.5724 | –
101 kPa, x1 = 0.9062 | 0.5377 | –
101 kPa, x1 = 0.9457 | 0.5099 | –
101 kPa, x1 = 0.9733 | 0.4948 | –

CCCCCCO + CCCCCCCCCCCC
298.15 K, 101 kPa
Conditions | viscosity [mPa·s]
x2 = 0.0555 | 3.93
x2 = 0.0999 | 3.52
x2 = 0.1555 | 3.06
x2 = 0.1999 | 2.74
x2 = 0.2554 | 2.38
x2 = 0.2999 | 2.12
x2 = 0.3555 | 1.85
x2 = 0.3998 | 1.66
x2 = 0.4555 | 1.47
x2 = 0.4999 | 1.34
x2 = 0.5554 | 1.21
x2 = 0.5998 | 1.14
x2 = 0.6554 | 1.07
x2 = 0.6999 | 1.04
x2 = 0.7555 | 1.02
x2 = 0.7997 | 1.03
x2 = 0.8555 | 1.06
x2 = 0.8998 | 1.09
x2 = 0.9555 | 1.15

O=C1CCCCC1 + CCCCCCCCCCCC
viscosity [mPa·s], 101.33 kPa
Conditions | x1 = 0.1085 | x1 = 0.1979 | x1 = 0.3049 | x1 = 0.4052 | x1 = 0.5049 | x1 = 0.6012 | x1 = 0.7012 | x1 = 0.8014 | x1 = 0.9008
298.15 K | 1.348 | 1.352 | 1.368 | 1.393 | 1.42 | 1.474 | 1.533 | 1.614 | 1.75
303.15 K | 1.237 | 1.238 | 1.252 | 1.272 | 1.302 | 1.344 | 1.398 | 1.469 | 1.623
308.15 K | 1.135 | 1.139 | 1.151 | 1.171 | 1.199 | 1.232 | 1.281 | 1.349 | 1.483

CC(=O)CC(C)C + CCCCCCCCCCO
viscosity [mPa·s], 100 kPa
Conditions | x1 = 0.0846 | x1 = 0.1569 | x1 = 0.2402 | x1 = 0.3455 | x1 = 0.4437 | x1 = 0.5617 | x1 = 0.6591 | x1 = 0.7447 | x1 = 0.8561 | x1 = 0.9486
293.15 K | 12.8 | 11.5 | 10.21 | 8.72 | 7.39 | 5.89 | 4.69 | 3.64 | 2.29 | 1.18
303.15 K | 8.66 | 7.8 | 6.94 | 5.94 | 5.05 | 4.05 | 3.24 | 2.55 | 1.65 | 0.92
313.15 K | 6.09 | 5.5 | 4.91 | 4.21 | 3.59 | 2.9 | 2.34 | 1.85 | 1.23 | 0.74
323.15 K | 4.44 | 4.02 | 3.58 | 3.08 | 2.64 | 2.15 | 1.75 | 1.4 | 0.96 | 0.61

CC(=O)CC(C)C + CCCCCCCCCO
viscosity [mPa·s], 100 kPa
Conditions | x1 = 0.0834 | x1 = 0.1721 | x1 = 0.2398 | x1 = 0.3469 | x1 = 0.4365 | x1 = 0.5577 | x1 = 0.6608 | x1 = 0.7339 | x1 = 0.8594 | x1 = 0.9502
293.15 K | 9.91 | 8.52 | 7.62 | 6.42 | 5.48 | 4.28 | 3.31 | 2.64 | 1.6 | 0.93
303.15 K | 6.85 | 5.94 | 5.34 | 4.49 | 3.86 | 3.05 | 2.42 | 1.99 | 1.27 | 0.78
313.15 K | 4.92 | 4.29 | 3.87 | 3.27 | 2.82 | 2.27 | 1.82 | 1.51 | 1 | 0.65
323.15 K | 3.63 | 3.18 | 2.88 | 2.45 | 2.13 | 1.73 | 1.4 | 1.18 | 0.81 | 0.55

CC(=O)CC(C)C + CCCCCCCCO
viscosity [mPa·s], 100 kPa
Conditions | x1 = 0.0818 | x1 = 0.1616 | x1 = 0.2492 | x1 = 0.3517 | x1 = 0.4411 | x1 = 0.5629 | x1 = 0.6505 | x1 = 0.7501 | x1 = 0.8518 | x1 = 0.9519
293.15 K | 7.68 | 6.48 | 5.45 | 4.46 | 3.71 | 2.87 | 2.32 | 1.72 | 1.2 | 0.76
303.15 K | 5.45 | 4.69 | 3.97 | 3.27 | 2.78 | 2.19 | 1.8 | 1.37 | 0.97 | 0.65
313.15 K | 4 | 3.46 | 2.97 | 2.47 | 2.1 | 1.67 | 1.4 | 1.11 | 0.82 | 0.57
323.15 K | 3 | 2.63 | 2.28 | 1.92 | 1.65 | 1.34 | 1.14 | 0.93 | 0.71 | 0.5

From the CheMixHub viscosity set
